Test results from EP0538469A1, “SULFONANILIDE DERIVATIVE AND MEDICINE” (NIPPON SHINYAKU COMPANY, LIMITED, priority 1990, dated 1991).
pEC50: −log10 of the molar value. Where a name gives a salt, the structure may show the parent alone. Read-outs that look alike come from different tables or passages of the source. Marks after values point to notes of the source that are not given here.

What was measured:
rats (SD strain, male) = assay: Acute toxicity, oral, rats; format: in vivo; conditions: observed two weeks
Procedure: (§1) Numbers of mice (ddY-strain, male, 6-8 weeks age) and rats (SD strain, male, 6-7 weeks age) in each group were 4 and 6, respectively.
(§2) The drug to be tested was orally administered at the dose of 10 ml/kg using an oral probe to the animals which were fasted since one day before (for 16-18 hours). After giving the drug, the animals were returned to the state where both feed and water were available and the general symptom and the dead cases, if any, were checked for two weeks. The drug was suspended in physiological saline solution containing 0.5% of methylcellulose (0.5% MC) and the suspension was given to the animals by oral route.

[1] = Acute toxicity, oral, rats; format: in vivo; conditions: rat, in vivo, SD rats, read-out: Rats LD₅₀
Procedure: as §1, §2

male rabbits [2] = assay: Action to intra urethral pressure and blood pressure, intravenous administration; format: in vivo; conditions: i.v.; for Selectivity (B/A): BP(ED30%↑) / IUP(ED150%↑); for ED (30%) / ED (150%): Oryctolagus cuniculus, iv, anesthetized male rabbits; for ED (30%): dose increasing blood pressure to an extent of 30%, read-out: BP(B) [BP(ED30%↑)] (converted); for ED (150%): dose increasing intra urethral pressure to an extent of 150%, read-out: IUP(A) [IUP(ED150%↑)]
Procedure: (§3) The experiment was conducted using male rabbits of body weight of 1.4-3.1 kg under fasted condition. The animals were fixed at backs under uretrane(1.2g/kg s.c.) anesthesia, abdomen was subjected to a midline incision and bladder was exposed. In order to prevent the urine stored in the bladder on the intra urethral pressure, the urine in the bladder was compulsorily discharged out of the body. After that, a catheter was inserted into both ureters and the urine discharged from kidney was introduced outside.
(§4) The intra urethral pressure(IUP) at the urethra tract of about 0.5-1 cm distance from the neck of the bladder was measured using a microtip transducer transducer equipped with a baloon (filled with physiological saline solution) at the top end. Further, polyethylene tube was inserted into femoral artery to measure the blood pressure (BP).
The drug to be tested was injected into the vein of ear every fifteen minutes and the maximum responses of the increasing action of intra urethral pressure tract and of the increasing action of blood pressure were measured at each dose.

mice (ddY-strain, male) = assay: Acute toxicity, oral, mice; format: in vivo; conditions: observed two weeks
Procedure: as §1, §2

femoral artery = assay: Contraction of isolated femoral artery (Magnus vessel, cumulative concentration/response curves); format: cell-based, rabbits; conditions: Oryctolagus cuniculus, female rabbit femoral artery, contraction
Procedure: (§5) The experiment was conducted using female rabbits of 2 to 3.5 kg body weight.
(§6) The animals were killed by draining the blood out under anesthetizing with pentobarbital (30 mg/kg, by intravenous injection) and smooth muscle of urethra and femoral artery were excised. Each of the excised samples was placed in a Magnus vessel filled with a modified Krebs solution (at 37°C; under mixed gas) and both smooth muscle of urethra and femoral artery were suspended with 1 g load.
(§7) The drug to be tested was accumulated to contract the samples whereby the concentration/response curves were obtained wherefrom ED₅₀ (M) and pD₂ were calculated and the selectivity to urethra was determined.

smooth muscle of urethra = assay: Contraction of isolated smooth muscle of urethra (Magnus vessel, cumulative concentration/response curves); format: cell-based, rabbits; conditions: for pEC50: Oryctolagus cuniculus, female rabbit urethra smooth muscle, contraction
Procedure: as §5, §6, §7

male rabbits [3] = assay: Action to intra urethral pressure and blood pressure, administration to duodenum; format: in vivo
Procedure: as §3, §4
Abdomen right above stomach was subjected to a midline incision and, after that, the drug to be tested suspended in 0.5% methyl cellulose (0.5% MC) was administered at the dose of 0.5ml/kg to the duodenum. […] The above administration to duodenum corresponded to oral administration as the administration into digestive organ in anethetized animals.

[4] = read-out: ED₅₀ Femoral Artery(B)
[5] = read-out: pD₂ Femoral Artery(B)
[6] = 1 mg/kg i.d., 10 min after administration
[7] = 1 mg/kg i.d., 20 min after administration
[8] = 1 mg/kg i.d., 30 min after administration
[9] = 1 mg/kg i.d., 60 min after administration
[10] = 1 mg/kg i.d., 90 min after administration
[11] = 1 mg/kg i.d., 120 min after administration
[12] = 1 mg/kg i.d., 180 min after administration
[13] = 3 mg/kg i.d., 10 min after administration
[14] = 3 mg/kg i.d., 20 min after administration
[15] = 3 mg/kg i.d., 30 min after administration
[16] = 3 mg/kg i.d., 60 min after administration
[17] = 3 mg/kg i.d., 90 min after administration
[18] = 3 mg/kg i.d., 120 min after administration
[19] = 3 mg/kg i.d., 180 min after administration

CNCC(O)c1ccc(F)c(NS(C)(=O)=O)c1.Cl (racemic) [(61A), (±)-2'-Fluoro-5'-(1-hydroxy-2-methylaminoethyl)methanesulfonanilide hydrochloride, reference compound]
Rats Dead/ Total (rats (SD strain, male); 300 mg/kg): 0 / 6 | LD50 at 336 h [1]: > 300 mg/kg | Selectivity (B/A) (male rabbits [2]; hydrochloride): 1.2 | ED (30%) (male rabbits [2]): 0.037 mg/kg | ED (150%) (male rabbits [2]): 0.031 mg/kg

CS(=O)(=O)Nc1ccc(F)c(C(O)CN)c1 (racemic) [(49A), (±)-3'-(2-Amino-1-hydorxyethyl)-4'-fluoromethanesulfonanilide hydrochloride]
Mice Dead/ Total (mice (ddY-strain, male); 1000 mg/kg): 0 / 4 | Rats Dead/ Total (rats (SD strain, male); 100 mg/kg): 0 / 6 | Rats Dead/ Total (rats (SD strain, male); 500 mg/kg): 1 / 6 | LD50 at 336 h [1]: > 500 mg/kg | Selectivity (B/A) (male rabbits [2]): 2.2 | ED (30%) (male rabbits [2]): 0.044 mg/kg | ED (150%) (male rabbits [2]): 0.02 mg/kg

CS(=O)(=O)Nc1cc(F)cc(C(O)CN)c1.Cl (racemic) [(73A), (±)-3'-(2-Amino-1-hydroxyethyl)-5'-fluoromethanesulfonanilide hydrochloride]
Rats Dead/ Total (rats (SD strain, male); 100 mg/kg): 1 / 6 | Rats Dead/ Total (rats (SD strain, male); 300 mg/kg): 5 / 6 | LD50 at 336 h [1]: ~200 mg/kg | Selectivity (B/A) (male rabbits [2]; hydrochloride): 3.0 | ED (30%) (male rabbits [2]): 0.081 mg/kg | ED (150%) (male rabbits [2]): 0.027 mg/kg

CS(=O)(=O)Nc1cccc(C(O)CN)c1.Cl (racemic) [(24A), (±)-3'-(2-Amino-1-hydroxyethyl)methanesulfonanilide hydrochloride, reference compound]
Mice Dead/ Total (mice (ddY-strain, male); 1000 mg/kg): 0 / 4 | Mice Dead/ Total (mice (ddY-strain, male); 3000 mg/kg): 3 / 4 | Rats Dead/ Total (rats (SD strain, male); 30 mg/kg): 0 / 6 | Rats Dead/ Total (rats (SD strain, male); 100 mg/kg): 1 / 6 | Rats Dead/ Total (rats (SD strain, male); 300 mg/kg): 1 / 6 | LD50 at 336 h [1]: > 300 mg/kg | Selectivity (B/A) (male rabbits [2]; hydrochloride): 1.0 | ED (30%) (male rabbits [2]): 0.036 mg/kg | ED (150%) (male rabbits [2]): 0.035 mg/kg

CNC[C@H](O)c1cccc(O)c1 [Phenylephrine]
pEC50 (femoral artery; [4]): 6.32 | pEC50 (femoral artery; [5]): 6.32 | ED (30%) (male rabbits [2]): 0.019 mg/kg | ED (150%) (male rabbits [2]): 0.037 mg/kg | pEC50 (smooth muscle of urethra; read-out: ED₅₀ Urethra(A)): 5.43 | pEC50 (smooth muscle of urethra; read-out: pD₂ Urethra(A)): 5.43

CS(=O)(=O)Nc1ccc(F)c([C@@H](O)CN)c1.O=C(O)C(O)C(O)C(=O)O [(49K), (R)-(-)-3'-(2-Amino-1-hydroxyethyl)-4'-fluoromethanesulfonanilide L-(+)-tartrate]
Mice Dead/ Total (mice (ddY-strain, male); 1000 mg/kg): 0 / 4 | Mice Dead/ Total (mice (ddY-strain, male); 3000 mg/kg): 0 / 4 | Rats Dead/ Total (rats (SD strain, male); 100 mg/kg): 0 / 6 | Rats Dead/ Total (rats (SD strain, male); 300 mg/kg): 0 / 6 | Rats Dead/ Total (rats (SD strain, male); 500 mg/kg): 2 / 6 | Rats Dead/ Total (rats (SD strain, male); 1000 mg/kg): 1 / 6 | LD50 at 336 h [1]: > 1000 mg/kg | Selectivity (B/A) (male rabbits [2]): 6.6 | ED (30%) (male rabbits [2]): 0.059 mg/kg | ED (150%) (male rabbits [2]): 0.009 mg/kg

CNCC(O)c1cccc(NS(C)(=O)=O)c1 (centres unmarked) [Amidephrine, reference compound]
Mice Dead/ Total (mice (ddY-strain, male); 1000 mg/kg): 0 / 4 | Mice Dead/ Total (mice (ddY-strain, male); 3000 mg/kg): 3 / 4 | pEC50 (femoral artery; [4]): 5.71 | pEC50 (femoral artery; [5]): 5.71 | Rats Dead/ Total (rats (SD strain, male); 5 mg/kg): 0 / 6 | Rats Dead/ Total (rats (SD strain, male); 10 mg/kg): 3 / 6 | Rats Dead/ Total (rats (SD strain, male); 20 mg/kg): 4 / 6 | Rats Dead/ Total (rats (SD strain, male); 30 mg/kg): 6 / 6 | LD50 at 336 h [1]: 12.4 mg/kg | Change(%) BP (male rabbits [3]; [6]): 2.4% | Change(%) BP (male rabbits [3]; [7]): -0.1% | Change(%) BP (male rabbits [3]; [8]): 2.2% | Change(%) BP (male rabbits [3]; [9]): 7.2* % | Change(%) BP (male rabbits [3]; [10]): 14.3** % | Change(%) BP (male rabbits [3]; [11]): 10.3* % | Change(%) BP (male rabbits [3]; [12]): 3.7** % | Change(%) BP (male rabbits [3]; [13]): 5.8% | Change(%) BP (male rabbits [3]; [14]): 3.7% | Change(%) BP (male rabbits [3]; [15]): 4.1% | Change(%) BP (male rabbits [3]; [16]): 20.7** % | Change(%) BP (male rabbits [3]; [17]): 34.4** % | Change(%) BP (male rabbits [3]; [18]): 39.1** % | Change(%) BP (male rabbits [3]; [19]): 31.1** % | Change(%) IUP (male rabbits [3]; [6]): 0.7% | Change(%) IUP (male rabbits [3]; [7]): 0.6% | Change(%) IUP (male rabbits [3]; [8]): 8.3% | Change(%) IUP (male rabbits [3]; [9]): 47.6** % | Change(%) IUP (male rabbits [3]; [10]): 56.8** % | Change(%) IUP (male rabbits [3]; [11]): 46.1* % | Change(%) IUP (male rabbits [3]; [12]): 32.1% | Change(%) IUP (male rabbits [3]; [13]): -4.5% | Change(%) IUP (male rabbits [3]; [14]): 15.9% | Change(%) IUP (male rabbits [3]; [15]): 47.1** % | Change(%) IUP (male rabbits [3]; [16]): 108.5** % | Change(%) IUP (male rabbits [3]; [17]): 107.8** % | Change(%) IUP (male rabbits [3]; [18]): 92.7** % | Change(%) IUP (male rabbits [3]; [19]): 92.2** % | Selectivity (B/A) (smooth muscle of urethra; ED₅₀ femoral artery / ED₅₀ urethra): 0.18 | pEC50 (smooth muscle of urethra; read-out: ED₅₀ Urethra(A)): 4.97 | pEC50 (smooth muscle of urethra; read-out: pD₂ Urethra(A)): 4.97
